# Laboratory results taken from US20200181117A1, “SUBSTITUTED 3-HETEROARYLOXY-1H-PYRAZOLES AND SALTS THEREOF AND THEIR USE AS HERBICIDAL ACTIVE SUBSTANCES” (BAYER CROPSCIENCE AKTIENGESELLSCHAFT, priority 2017, published 2020).
# What was measured:
# Format in all cases: in vivo
# Amaranthus retroflexus [1] = experiment: Post-emergence herbicidal action; details: 1280 g/ha, rated visually after about 3 weeks vs untreated controls
# Experimental: (§1) A. Post-Emergence Herbicidal Action and Crop Plant Compatibility Seeds of monocotyledonous and dicotyledonous weeds and crop plants were placed in sandy loam in plastic or wood-fiber pots, covered with soil and cultivated in a greenhouse under controlled growth conditions. 2 to 3 weeks after sowing, the test plants were treated at the one-leaf stage. The compounds of the invention, formulated in the form of wettable powders (WP) or as emulsion concentrates (EC), were then sprayed onto the green parts of the plants as aqueous suspension or emulsion with addition of 0.5% additive at a water application rate of 600 l/ha (converted). After the test plants had been kept in the greenhouse under optimum growth conditions for about 3 weeks, the activity of the preparations was rated visually in comparison to untreated controls. For example, 100% activity=the plants have died, 0% activity=like control plants. Tables B1 to B15 below show the effects of selected compounds of the general formula (I) according to Table I on various harmful plants and an application rate corresponding to 1280 g/ha, which were obtained by the experimental procedure mentioned above.
# Polygonum convolvulus [2] = experiment: Post-emergence herbicidal action; details: 1280 g/ha, rated visually after about 3 weeks vs untreated controls
# Experimental: as §1
# Viola tricolor [3] = experiment: Post-emergence herbicidal action; details: 1280 g/ha, rated visually after about 3 weeks vs untreated controls
# Experimental: as §1
# Amaranthus retroflexus [4] = experiment: Pre-emergence herbicidal action; details: 1280 g/ha, scored visually after about 3 weeks vs untreated controls
# Excerpt: (§2) Pre-Emergence Herbicidal Action and Crop Plant Compatibility Seeds of monocotyledonous and dicotyledonous weed plants and crop plants were placed in plastic or wood fiber pots and covered with soil. The compounds of the invention, formulated in the form of wettable powders (WP) or as emulsion concentrates (EC), were then applied onto the surface of the covering soil as aqueous suspension or emulsion with addition of 0.5% additive at a water application rate of 600 l/ha (converted). After the treatment, the pots were placed in a greenhouse and kept under good growth conditions for the test plants. After about 3 weeks, the effect of the preparations was scored visually in comparison with untreated controls as percentages. For example, 100% activity=the plants have died, 0% activity=like control plants. Tables C1 to C14 below show the effects of selected compounds of the general formula (I) according to Table I on various harmful plants and an application rate corresponding to 1280 g/ha, which were obtained by the experimental procedure mentioned above.
# Polygonum convolvulus [5] = experiment: Pre-emergence herbicidal action; details: 1280 g/ha, scored visually after about 3 weeks vs untreated controls
# Excerpt: as §2
# Setaria viridis = experiment: Pre-emergence herbicidal action; details: 1280 g/ha, scored visually after about 3 weeks vs untreated controls
# Excerpt: as §2
# Stellaria media [6] = experiment: Pre-emergence herbicidal action; details: 1280 g/ha, scored visually after about 3 weeks vs untreated controls
# Excerpt: as §2
# Veronica persica = experiment: Pre-emergence herbicidal action; details: 1280 g/ha, scored visually after about 3 weeks vs untreated controls
# Excerpt: as §2
# Viola tricolor [7] = experiment: Pre-emergence herbicidal action; details: 1280 g/ha, scored visually after about 3 weeks vs untreated controls
# Excerpt: as §2
# Abutilon theophrasti [8] = experiment: Post-emergence herbicidal action; details: 1280 g/ha, rated visually after about 3 weeks vs untreated controls
# Experimental: as §1
# Abutilon theophrasti [9] = experiment: Pre-emergence herbicidal action; details: 1280 g/ha, scored visually after about 3 weeks vs untreated controls
# Excerpt: as §2
# Alopecurus myosuroides = experiment: Pre-emergence herbicidal action; details: 1280 g/ha, scored visually after about 3 weeks vs untreated controls
# Excerpt: as §2
# Echinochloa crus-galli = experiment: Pre-emergence herbicidal action; details: 1280 g/ha, scored visually after about 3 weeks vs untreated controls
# Excerpt: as §2
# Matricaria inodora = experiment: Pre-emergence herbicidal action; details: 1280 g/ha, scored visually after about 3 weeks vs untreated controls
# Excerpt: as §2
# Stellaria media [10] = experiment: Post-emergence herbicidal action; details: 1280 g/ha, rated visually after about 3 weeks vs untreated controls
# Experimental: as §1
SMILES,herbicidal activity on Amaranthus retroflexus (Amaranthus retroflexus [1]) [%],herbicidal activity on Polygonum convolvulus (Polygonum convolvulus [2]) [%],herbicidal activity on Viola tricolor (Viola tricolor [3]) [%],herbicidal activity on Amaranthus retroflexus (Amaranthus retroflexus [4]) [%],herbicidal activity on Polygonum convolvulus (Polygonum convolvulus [5]) [%],herbicidal activity on Setaria viridis (Setaria viridis) [%],herbicidal activity on Stellaria media (Stellaria media [6]) [%],herbicidal activity on Veronica persica (Veronica persica) [%],herbicidal activity on Viola tricolor (Viola tricolor [7]) [%],herbicidal activity on Abutilon theophrasti (Abutilon theophrasti [8]) [%],herbicidal activity on Abutilon theophrasti (Abutilon theophrasti [9]) [%],herbicidal activity on Alopecurus myosuroides (Alopecurus myosuroides) [%],herbicidal activity on Echinochloa crus-galli (Echinochloa crus-galli) [%],herbicidal activity on Matricaria inodora (Matricaria inodora) [%],herbicidal activity on Stellaria media (Stellaria media [10]) [%]
CCn1cc(Sc2ccc(F)cc2)c(Oc2ncc(Cl)cn2)n1 [Example I-121],80,80,80,100,90,90,80,100,100,–,–,–,–,–,–
Cc1ccnc(Oc2nn(C)c(C)c2Sc2cccc(Cl)c2)n1 [Example I-096],–,–,–,100,100,100,90,100,100,80,100,100,80,100,–
CCn1cc(Sc2ccccc2)c(Oc2ncc(Cl)cn2)n1 [Example I-138],–,–,80,–,80,100,–,100,90,–,80,–,–,–,–
CCc1c(Sc2cccc(Cl)c2)c(Oc2ncccn2)nn1C [Example I-035],–,100,100,90,–,90,–,–,100,100,–,–,–,–,80
COc1cnc(Oc2nn(C)c(C)c2Sc2ccc(F)cc2Cl)nc1 [Example I-156],100,80,100,100,100,100,100,–,100,–,90,–,80,100,–
Cn1cc(Sc2ccc(Cl)cc2)c(Oc2cnc(Cl)nc2)n1 [Example I-230],–,–,80,–,–,–,–,–,–,–,–,–,–,–,–
CCn1cc(Sc2ccccc2)c(Oc2ncccn2)n1 [Example I-042],–,80,–,80,–,80,100,100,90,–,–,–,–,90,–
CCn1cc(Sc2ccc(Cl)cc2)c(Oc2ncc(F)cn2)n1 [Example I-160],–,–,100,–,80,–,–,100,100,–,–,–,–,–,–
